Target: MBNL1-(CUG)16 complex
Experiment: EMSA inhibition of the MBNL1-(CUG)16 complex
Assay type: biochemical
Settings: EMSA; KI=IC50×KD/[protein]total; read-out: KI, apparent inhibition constant, MBNL1-(CUG)16 complex
Protocol: FIG. 1A-B. Determination of inhibition constants, KI, by EMSA. (a) Representative gels showing the release of (CUG)16 at different ligand concentrations. Top band is the MBNL1-(CUG)16 complex, the bottom band is the free (CUG)16. (b) IC50 values were obtained by plotting the RNA fraction bound versus ligand concentrations. The apparent inhibition constant (KI) was calculated using the equation: KI=IC50×KD/[protein]total, where KD is the dissociation constant of the MBNL1-RNA complex and [protein] is at least 7-fold greater than the KD. Error bars represent standard deviation of three independent experiments.
An electrophoretic mobility shift assay (EMSA) was employed to determine the in vitro inhibition of MBNL1-rCUG^exp complex by monomer 1a and dimers 2a-b (FIG. 1). This study used (CUG)16, which can form a hairpin structure containing a maximum of 8 U-U mismatches. […] Likely, a 1:1 complex was formed. In this study, a truncated MBNL1 (1-272 amino acids) containing four zinc finger motifs of MBNL1 and a hexahistidine tag (C-terminus) was employed. This MBNL1 construct and the full-length MBNL1 have the similar affinities to rCUG repeats.
To determine the inhibition constant of bivalent ligands 2a and 2b, the MBNL1-(CUG)16 mixture, in which ca. 50% of the RNA is free, was incubated with various concentrations of ligand (FIG. 1a). The dimer concentrations were not raised to higher than 10 μM due to the aggregation on the gel at high concentrations. As the concentration of ligand increased, more RNA was released from the complex with MBNL protein. By fitting the plot of bound RNA fractions versus ligand concentrations with an appropriate equation, the IC50 value was determined (FIG. 1b).
(CUG)16 RNA was labeled with [γ-^32P]-ATP using T4 poly-nucleotide kinase (New England Biolabs). Labeled RNA was purified by phenol extraction and ethanol precipitation. Labeled RNA was heated at 95° C. for 5 min, then placed on ice for 10 min and diluted in protein binding buffer (175 mM NaCl, 5 mM MgCl2, 20 mM Tris-HCl (pH 8), 1.25 mM 2-mercapto-ethanol (BME), 12.5% glycerol, 2 mg/ml bovine serum albumin (BSA), 0.1 mg/ml heparin, 0.05% or 0.1% Triton X). For MBNL1-(CUG)16 binding study, MBNL1 was serially diluted by a factor of 3 in protein binding buffer. To each solution was added labeled RNA, so that the final concentration of RNA was 0.2 nM. The resulting mixtures were incubated at room temperature for 10 min and loaded onto a 6% polyacrylamide gel (80:1) at 4° C. The gel was run for 2 h at 180 V in Tris-Borate 0.5× buffer (pH 8.2-8.3). Gels were dried at 80° C. under high vacuum for 2 h, developed overnight in phosphor exposure cassette, and visualized on a Molecular Dynamics Storm PhosphorImager. The KD (1:1 stoichiometry assumption) was obtained by fitting the normalized fraction RNA bound versus the concentration of protein using the equation: Fraction RNA bound=Bmax×[MBNL1]total^h/(KD^h+MBNL1]total^h) where Bmax is maximum fraction RNA bound, h is a Hill slope. Protein concentration in reaction mixture was larger than 10-fold excess over RNA concentration. Data is illustrated in FIGS. 6 and 7.

In the case of `N=C(NCCCCNc1nc(N)nc(N)n1)c1ccc(C(=N)NCCCCNc2nc(N)nc(NCCCn3cc(CCNc4nc(N)nc(NCCCCNC(=N)c5ccc(C(=N)NCCCCNc6nc(N)nc(N)n6)cc5)n4)nn3)n2)cc1` [Compound 2b], the Ki is reported as 36 ± 12 nM.

Source: patent US10266520B2, “Bisamidinium-based inhibitors for the treatment of myotonic dystrophy” (The Board of Trustees of the University of Illinois, priority 2014, dated 2019)
